Source: US5595756A, “Liposomal compositions for enhanced retention of bioactive agents” (Inex Pharmaceuticals Corporation, priority 1993, dated 1997)

How the values were obtained:
[1] = Drug induced weight change in P388-bearing mice (% wt change on day 7); format: in vivo, BDF1 mice; conditions: i.v.
Description: Animal weights and mortality were monitored daily.

[2] = system: P388 lymphocytic leukemia; assay: P388 antitumor activity (murine lymphocytic leukemia model), free and liposomal vincristine i.v.; conditions: for Median Survival / 60-day Survival: i.v.; for Median Survival: saline control 10.0; for 60-day Survival: survivors/total; for % ILS (increase in life span): from median survival, treated vs saline control
Description: The antitumor effects of liposomal vincristine were monitored using the P388 lymphocytic leukemia model. BDF1 mice (5 per group) were injected i.p. with 1×10^6 P388 cells. The indicated doses of saline or liposomal vincristine were administered (i.v.) 24 h after tumor inoculation. Animal weights and mortality were monitored daily. Mean and median survival times as well as the statistical significance of the results were determined using the Mann-Whitney-Wilcoxon procedure.
Murine P388 antitumor activity of the DSPC/Chol/GM1 pH 2 liposomal vincristine preparation was compared to free drug and DSPC/Chol pH 4 liposomal vincristine (Table I below).

[3] = drug dose 1.0 mg/kg, lipid dose 10 mg/kg
[4] = drug dose 2.0 mg/kg, lipid dose 20 mg/kg
[5] = drug dose 3.0 mg/kg, lipid dose 30 mg/kg

In the case of `CC[C@]1(O)C[C@H]2CN(CCc3c([nH]c4ccccc34)[C@@](C(=O)OC)(c3cc4c(cc3OC)N(C=O)[C@H]3[C@@](O)(C(=O)OC)[C@H](OC(C)=O)[C@]5(CC)C=CCN6CC[C@]43[C@@H]65)C2)C1` [Free Vincristine], the “% wt change on day 7” value [1, 3] is reported as “+1.9%”, the “% wt change on day 7” value [1, 4] is reported as “+0.5%” and the “% wt change on day 7” value [1, 5] is reported as -13.4%. The “Median Survival” value [2, 3] was 14.0 days, the “60-day Survival” value [2, 3] was 0/5 and the “% ILS (increase in life span)” value ([2]; drug dose 1.0 mg/kg) was 40%. The “Median Survival” value [2, 4] was 15.0 days, the “60-day Survival” value [2, 4] was 0/5 and the “% ILS (increase in life span)” value ([2]; drug dose 2.0 mg/kg) was 50%. The “Median Survival” value [2, 5] was 16.0 days, the “60-day Survival” value [2, 5] was 0/5 and the “% ILS (increase in life span)” value ([2]; drug dose 3.0 mg/kg) was 60%. The long-term survivors ([2]; long-term = >70 days) was “No long-term survivors”.
